Consider one molecule from patent US20230025316A1, “OLAPARIB PHARMACEUTICAL COMPOSITION, FORMULATION THEREOF, PREPARATION METHOD THEREOF AND USE THEREOF” (Sinotherapeutics Inc., priority 2020, published 2023).

A value given as a limit tells only on which side of the number the result lay.

What is called solubility is how much of the substance goes into solution per volume.

Series [1] in a line: Apparent solubility in pH 6.8 phosphate buffer (shaker, HPLC). The class given is physicochemical. As to the method:
3. Apparent solubility: excess amount of Olaparib pharmaceutical composition was weighed into a container, about ⅔ of the volume of the container with pH 6.8 phosphate buffer was added, and the container was placed in a shaker at 37° C. for 2 h. After filtering the contents of the container with a 0.45 μm filter membrane, the filtrate was collected, diluted with an appropriate amount of acetonitrile, mixed by vortex, and the concentration of Olaparib was determined by HPLC analysis.

Series [2] in a line: Dissolution, USP Method 1 (Basket Method), pH 6.8 phosphate buffer. The class given is physicochemical. The following applies: 900 mL, 100 rpm, 37.5° C., 150 mg Olaparib/cup. As to the method: 5. Dissolution sample analysis: the same as the HPLC analysis method described in the above-mentioned apparent solubility assay.
The main absorption site of drugs in the human body is the small intestine, and the pH value in the small intestine is about 6.8. According to the method described above, the dissolution of each Olaparib-cyclodextrin pharmaceutical composition in pH 6.8 phosphate buffer was determined, and the results were shown in Table 1-4.

Turning to `O=C(c1cc(Cc2n[nH]c(=O)c3ccccc23)ccc1F)N1CCN(C(=O)C2CC2)CC1` [API, 4-[(3-{[4(cyclopropylcarbonyl)piperazin-1-yl]carbonyl}-4-fluorophenyl)methyl]phthalazin-1(2H)-one], the solubility at 2 h in series [1] (aqueous buffer, thermodynamic from solid, pH 6.8 phosphate buffer, 37° C., 2 h) was below 100 µg/mL. For the same molecule, the “Solubility ratio (Composition/API)” value in series [1] (pH 6.8 buffer, apparent solubility relative to API) came out at 1. In addition, the “Cumulative dissolution in pH 6.8 phosphate buffer” value in series [2] (15 min) is recorded as 12.2%; in series [2] (30 min), 21.4%; in series [2] (45 min), 30.2%; in series [2] (60 min) it was 37.5%; in series [2] (90 min), 39.8%.
